In publication PMC9656955, “The Novel Class IIa Selective Histone Deacetylase Inhibitor YAK540 Is Synergistic with Bortezomib in Leukemia Cell Lines” (International Journal of Molecular Sciences, 2022):

Legend:
Format in all cases: biochemical
HDAC 2 = biological target: T1, HDAC 2 (Homo sapiens, UniProt Q92769); experiment: recombinant enzyme fluorogenic assay, Boc-Lys(Ac)-AMC substrate; settings: recombinant hdac 2; read-out: YAK540 / IC50 (pIC50 ±SEM) (converted)
T1 construct: gene HDAC2

HDAC 6 = biological target: T2, HDAC 6 (Homo sapiens, UniProt Q9UBN7); experiment: as above; settings: recombinant hdac 6; read-out: YAK540 / IC50 (pIC50 ±SEM) (converted)
T2 construct: gene HDAC6
T2 sequence (Q9UBN7 1-1215): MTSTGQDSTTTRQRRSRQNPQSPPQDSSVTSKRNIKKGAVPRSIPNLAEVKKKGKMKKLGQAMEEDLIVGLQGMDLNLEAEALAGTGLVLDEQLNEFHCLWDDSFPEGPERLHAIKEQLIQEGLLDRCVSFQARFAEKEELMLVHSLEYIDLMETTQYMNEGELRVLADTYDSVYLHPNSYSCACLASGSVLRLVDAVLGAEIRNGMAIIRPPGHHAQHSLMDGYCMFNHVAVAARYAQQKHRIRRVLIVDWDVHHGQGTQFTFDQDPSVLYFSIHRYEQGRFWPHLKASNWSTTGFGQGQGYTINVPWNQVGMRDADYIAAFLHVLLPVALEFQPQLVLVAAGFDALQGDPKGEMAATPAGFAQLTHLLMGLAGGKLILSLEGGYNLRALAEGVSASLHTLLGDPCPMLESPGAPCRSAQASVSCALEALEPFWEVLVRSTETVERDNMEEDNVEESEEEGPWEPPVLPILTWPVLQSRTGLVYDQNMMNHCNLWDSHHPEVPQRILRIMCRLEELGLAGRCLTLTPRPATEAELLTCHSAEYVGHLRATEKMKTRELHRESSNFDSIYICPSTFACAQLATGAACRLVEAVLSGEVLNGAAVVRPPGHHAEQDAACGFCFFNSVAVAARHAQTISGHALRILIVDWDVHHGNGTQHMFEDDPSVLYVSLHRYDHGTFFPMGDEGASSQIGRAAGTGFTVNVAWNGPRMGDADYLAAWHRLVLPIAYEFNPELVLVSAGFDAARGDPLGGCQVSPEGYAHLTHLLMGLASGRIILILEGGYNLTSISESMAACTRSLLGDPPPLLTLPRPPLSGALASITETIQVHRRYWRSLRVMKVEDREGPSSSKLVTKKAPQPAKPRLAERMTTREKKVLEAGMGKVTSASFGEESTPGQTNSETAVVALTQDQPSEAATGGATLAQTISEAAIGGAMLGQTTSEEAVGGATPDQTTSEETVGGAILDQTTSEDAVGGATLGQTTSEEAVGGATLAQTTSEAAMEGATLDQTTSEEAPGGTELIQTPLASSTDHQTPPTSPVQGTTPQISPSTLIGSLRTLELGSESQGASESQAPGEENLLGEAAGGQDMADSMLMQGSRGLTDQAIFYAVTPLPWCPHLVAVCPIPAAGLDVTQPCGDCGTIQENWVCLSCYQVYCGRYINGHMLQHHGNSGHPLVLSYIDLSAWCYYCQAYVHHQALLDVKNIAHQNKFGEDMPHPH

HDAC 8 = biological target: T3, HDAC 8 (Homo sapiens, UniProt Q9BY41); experiment: recombinant enzyme fluorogenic assay, Boc-Lys-(Tfa)-AMC substrate; settings: recombinant hdac 8; read-out: YAK540 / IC50 (pIC50 ±SEM) (converted)
T3 construct: gene HDAC8
T3 sequence (Q9BY41 1-377): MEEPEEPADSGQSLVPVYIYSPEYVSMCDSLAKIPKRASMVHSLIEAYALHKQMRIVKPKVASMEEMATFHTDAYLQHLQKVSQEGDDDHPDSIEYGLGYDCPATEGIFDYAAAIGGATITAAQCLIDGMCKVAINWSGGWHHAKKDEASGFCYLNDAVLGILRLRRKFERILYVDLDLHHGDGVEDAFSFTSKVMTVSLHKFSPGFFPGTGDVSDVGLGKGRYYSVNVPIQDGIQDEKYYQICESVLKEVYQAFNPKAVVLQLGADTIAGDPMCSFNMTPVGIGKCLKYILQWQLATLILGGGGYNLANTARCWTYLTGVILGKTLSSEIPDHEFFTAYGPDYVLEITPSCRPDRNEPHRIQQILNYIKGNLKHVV

HDAC 4 = biological target: T4, HDAC 4 (Homo sapiens, UniProt P56524); experiment: as above; settings: recombinant hdac 4; read-out: YAK540 / IC50 (pIC50 ±SEM) (converted)
T4 construct: gene HDAC4
T4 sequence (P56524 whole entry): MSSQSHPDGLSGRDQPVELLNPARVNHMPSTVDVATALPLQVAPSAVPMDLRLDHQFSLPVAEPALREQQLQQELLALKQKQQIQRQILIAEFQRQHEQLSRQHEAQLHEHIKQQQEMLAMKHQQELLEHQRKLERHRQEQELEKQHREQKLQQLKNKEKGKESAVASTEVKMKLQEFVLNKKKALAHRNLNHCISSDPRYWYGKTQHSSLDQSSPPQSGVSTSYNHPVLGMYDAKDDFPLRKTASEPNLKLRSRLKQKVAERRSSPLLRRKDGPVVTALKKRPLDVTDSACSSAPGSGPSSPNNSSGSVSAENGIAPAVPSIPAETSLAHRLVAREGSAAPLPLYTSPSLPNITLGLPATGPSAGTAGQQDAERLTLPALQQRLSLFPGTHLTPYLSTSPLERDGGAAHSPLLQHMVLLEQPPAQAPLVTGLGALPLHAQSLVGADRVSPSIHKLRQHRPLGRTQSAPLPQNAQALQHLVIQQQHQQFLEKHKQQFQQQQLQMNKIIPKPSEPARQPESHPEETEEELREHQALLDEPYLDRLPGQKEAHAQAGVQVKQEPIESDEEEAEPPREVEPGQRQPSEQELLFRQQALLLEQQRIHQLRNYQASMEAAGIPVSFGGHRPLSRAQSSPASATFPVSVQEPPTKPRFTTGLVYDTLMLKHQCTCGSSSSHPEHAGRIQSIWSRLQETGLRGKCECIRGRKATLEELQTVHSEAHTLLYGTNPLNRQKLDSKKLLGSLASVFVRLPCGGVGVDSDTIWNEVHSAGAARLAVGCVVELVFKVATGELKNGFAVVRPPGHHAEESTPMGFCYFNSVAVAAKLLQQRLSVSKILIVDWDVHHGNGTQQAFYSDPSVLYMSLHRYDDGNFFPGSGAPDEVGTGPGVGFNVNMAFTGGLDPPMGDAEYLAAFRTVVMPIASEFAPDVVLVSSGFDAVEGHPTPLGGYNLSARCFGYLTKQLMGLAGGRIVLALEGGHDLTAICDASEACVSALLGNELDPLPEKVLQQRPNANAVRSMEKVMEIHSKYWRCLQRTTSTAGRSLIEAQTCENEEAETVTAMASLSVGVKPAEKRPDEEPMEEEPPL

T1 sequence (Q92769 whole entry): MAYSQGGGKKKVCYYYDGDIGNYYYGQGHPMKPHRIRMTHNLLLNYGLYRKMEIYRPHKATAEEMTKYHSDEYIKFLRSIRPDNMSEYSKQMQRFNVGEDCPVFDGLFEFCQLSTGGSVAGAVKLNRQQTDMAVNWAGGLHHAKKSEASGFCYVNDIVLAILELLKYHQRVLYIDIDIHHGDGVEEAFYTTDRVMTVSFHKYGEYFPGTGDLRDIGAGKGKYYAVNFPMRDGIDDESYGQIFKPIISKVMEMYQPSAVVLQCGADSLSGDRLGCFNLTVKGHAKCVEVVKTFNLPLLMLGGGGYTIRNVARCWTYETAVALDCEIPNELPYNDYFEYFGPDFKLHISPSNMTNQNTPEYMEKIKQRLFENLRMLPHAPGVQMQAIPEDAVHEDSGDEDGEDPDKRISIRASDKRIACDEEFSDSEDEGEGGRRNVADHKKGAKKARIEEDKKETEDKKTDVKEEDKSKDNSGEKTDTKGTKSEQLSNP

An IC50 (HDAC 2) of 30.2 µM, an IC50 (HDAC 6) of 11.4 µM and an IC50 (HDAC 8) of 9.39 µM were found for `O=C(NOCCN1CCCCC1)c1ccc(-c2noc(C(F)(F)F)n2)cc1` [YAK540] in this work. For the same molecule, the IC50 (HDAC 4) was 0.114 µM.
